Reference: patent US20210205329A1 (The University of North Carolina at Chapel Hill, priority 2018, published 2021)
Several values for one entry are separate records, joined by “and”; a condition that tells them apart may be missing. Equal entries are not always repeated.

Molecular target: T1, TLR4/MyD88 binding (Rattus norvegicus, UniProt Q9QX05)
T1 construct: from tissue; host or cells: ventral tegmental area (VTA) of alcohol-preferring (P) rats
T1 sequence (Q9QX05 26-835): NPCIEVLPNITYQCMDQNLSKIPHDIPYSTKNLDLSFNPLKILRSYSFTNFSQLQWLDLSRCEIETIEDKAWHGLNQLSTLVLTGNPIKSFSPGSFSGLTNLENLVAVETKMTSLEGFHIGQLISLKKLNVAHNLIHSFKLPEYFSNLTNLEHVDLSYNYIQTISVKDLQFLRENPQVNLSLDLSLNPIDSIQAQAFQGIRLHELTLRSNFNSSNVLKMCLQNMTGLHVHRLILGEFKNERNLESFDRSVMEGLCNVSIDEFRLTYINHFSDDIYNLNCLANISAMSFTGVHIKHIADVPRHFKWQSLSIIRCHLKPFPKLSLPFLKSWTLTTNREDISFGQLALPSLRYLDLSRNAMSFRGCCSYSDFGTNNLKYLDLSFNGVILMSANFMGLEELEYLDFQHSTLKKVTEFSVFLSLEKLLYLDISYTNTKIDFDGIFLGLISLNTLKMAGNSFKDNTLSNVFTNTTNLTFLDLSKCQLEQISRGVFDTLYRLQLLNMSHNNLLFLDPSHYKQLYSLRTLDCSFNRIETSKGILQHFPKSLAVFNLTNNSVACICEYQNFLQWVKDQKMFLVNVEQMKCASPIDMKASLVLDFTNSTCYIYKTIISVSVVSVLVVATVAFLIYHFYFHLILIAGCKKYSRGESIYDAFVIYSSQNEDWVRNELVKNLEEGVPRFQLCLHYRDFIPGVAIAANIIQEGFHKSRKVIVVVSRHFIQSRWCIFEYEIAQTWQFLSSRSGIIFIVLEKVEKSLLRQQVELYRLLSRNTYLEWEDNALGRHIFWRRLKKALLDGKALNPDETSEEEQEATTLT
Experiment: TLR4/MyD88 co-immunoprecipitation in P rat VTA
Assay type: in vivo
Settings: 15 mg/kg IP, P rats
Description: Co-Immunoprecipitation Assay RAW264.7 cells [treated with LPS (1 μg/ml), 3α,5α-THP (1 μM) or pregnenolone (1 μM)] were exposed to chemical protein crosslinking (Poulopoulos et al, 2009) at 24 hrs post-treatment. Briefly, the cells were incubated (20 min on ice) with 1 mM of the cleavable, membrane-permeable crosslinker DSP (Thermo Fisher Scientific, Cat. #PG82081). Rat VTA homogenates were incubated (20 min on ice) with 200 μM of DSP. The crosslinker was quenched in 1 M Tris buffer (pH 7.5) (to a final concentration of 10-20 mM), and the material was centrifuged at 21,000×g for 15 min. Proteins from the cells were extracted with Pierce IP Lysis Buffer (Thermo Fisher Scientific, Cat. #87787) supplemented with protease and phosphatase inhibitor cocktails (Sigma). Proteins from the VTA were extracted with CelLytic MT (dialyzable mild detergent, bicine and 150 mM NaCl; Sigma Aldrich, St. Louis, Mo., USA, Cat. #C3228) supplemented with protease and phosphatase inhibitor cocktails (Sigma) according to the manufacturers instructions. […]

SMILES: CC(=O)[C@H]1CC[C@H]2[C@@H]3CC[C@H]4C[C@H](O)CC[C@]4(C)[C@H]3CC[C@]12C [3α,5α-THP, (3α,5α)3-hydroxypregnan-20-one]
- inhibition of TLR4/MyD88 binding in VTA: 43.5±5.4% and ~40%
